*1 amine or outer side, *2 acyl side, *3 side chain or, on linkers, in order; H or OH if unused. Where a SMILES comes first, the peptide text is derived from it. Bridges are numbered along the chain shown (N, C = ends). [ ]: non-standard residue; d: D form. X5 = O=C([C@H](Cc1ccc2ncccc2c1)N[*:1])[*:2]; Bip = N[C@@H](Cc1ccc(-c2ccccc2)cc1)C(=O)O; Phe(4-CN) = N#Cc1ccc(C[C@H](N)C(=O)O)cc1; Phe(4-NH2) = Nc1ccc(C[C@H](N)C(=O)O)cc1; 3Pal = N[C@@H](Cc1cccnc1)C(=O)O; 4Pal = N[C@@H](Cc1ccncc1)C(=O)O; Cha = N[C@@H](CC1CCCCC1)C(=O)O; Orn = NCCC[C@H](N)C(=O)O; Dab = NCC[C@H](N)C(=O)O; Dap = NC[C@H](N)C(=O)O

This test deals with T1, human PD-1 / PD-L1-Ig binding on Jurkat cell line over-expressing human PD-1 (Jurkat-PD-1) (Homo sapiens, UniProt Q15116).
T1 construct: expressed in transfected cells; host or cells: Jurkat
T1 sequence (Q15116 25-288): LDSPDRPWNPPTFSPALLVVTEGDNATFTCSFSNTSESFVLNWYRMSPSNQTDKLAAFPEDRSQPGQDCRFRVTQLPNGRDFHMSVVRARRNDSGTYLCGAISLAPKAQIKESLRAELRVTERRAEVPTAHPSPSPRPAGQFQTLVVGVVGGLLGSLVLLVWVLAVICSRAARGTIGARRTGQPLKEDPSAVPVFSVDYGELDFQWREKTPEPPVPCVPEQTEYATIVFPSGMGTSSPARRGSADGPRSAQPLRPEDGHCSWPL
Put plainly: Jurkat-PD-1 Cell Binding High-Content Screening Assay (CBA). It counts as cell-based. The note with it: Jurkat-PD-1 cells, PE-labeled PD-L1-Ig 20 nM final; read-out: Jurkat HPD1_PDL1 IC50. The procedure, abridged:
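Compounds were preincubated with Jurkat-hPD-1 cells in DMEM plus 10% fetal calf serum for 2 h at 37° C. Phycoerythrin-labeled PD-L1-Ig (20 nM final) was then added for 1 hour. Cells were fixed in 4% paraformaldehyde with Hoechst 33342, and bound fluorescence was quantified by high-content imaging.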
In the case of `CC(C)C[C@H]1NC(=O)[C@H](CCCN)NC(=O)[C@H](CCC(=O)O)NC(=O)[C@H](Cc2ccc(-c3ccccc3)cc2)NC(=O)[C@H](C(C)C)NC(=O)[C@H](Cc2c[nH]c3ccccc23)NC(=O)[C@H](CC(=O)O)NC(=O)[C@H](Cc2cccnc2)NC(=O)[C@H](CN)NC(=O)CSC[C@@H](C(=O)N[C@@H](C)C(N)=O)NC(=O)[C@H]([C@@H](C)O)NC(=O)[C@H](C(C)C)NC(=O)[C@H](CC2CCCCC2)NC(=O)[C@H](CCN)NC1=O` [Compound 2172] ({CH2CO}-[Dap][3Pal]DWV[Bip]E[Orn][dL][Dab][Cha]VTCA-NH2; thioether N-14), the IC50 was determined as 23.7 nM.

As for `CC(C)C[C@H]1NC(=O)[C@H](CCCN)NC(=O)[C@H](CCC(=O)O)NC(=O)[C@H](Cc2ccc(-c3ccccc3)cc2)NC(=O)[C@H](C(C)C)NC(=O)[C@H](Cc2c[nH]c3ccccc23)NC(=O)[C@H](CC(=O)O)NC(=O)[C@H](Cc2cccnc2)NC(=O)[C@H](Cc2ccc(OCC(=O)O)cc2)NC(=O)CSC[C@@H](C(=O)N[C@@H](C)C(N)=O)NC(=O)[C@H]([C@@H](C)O)NC(=O)[C@H](C(C)C)NC(=O)[C@H](CC2CCCCC2)NC(=O)[C@H](CCN)NC1=O` [Compound 2173], the IC50 stood at 16.8 nM.

With `CC(C)C[C@H]1NC(=O)[C@H](CCCN)NC(=O)[C@H](CCC(=O)O)NC(=O)[C@H](Cc2ccc(-c3ccccc3)cc2)NC(=O)[C@H](C(C)C)NC(=O)[C@H](Cc2c[nH]c3ccccc23)NC(=O)[C@H](CC(=O)O)NC(=O)[C@H](Cc2cccnc2)NC(=O)[C@H](Cc2ccncc2)NC(=O)CSC[C@@H](C(=O)N[C@@H](C)C(N)=O)NC(=O)[C@H]([C@@H](C)O)NC(=O)[C@H](C(C)C)NC(=O)[C@H](CC2CCCCC2)NC(=O)[C@H](CCN)NC1=O` [Compound 2174] ({CH2CO}-[4Pal][3Pal]DWV[Bip]E[Orn][dL][Dab][Cha]VTCA-NH2; thioether N-14), the half-inhibitory concentration (IC50) was 17.7 nM.

As for `CC(C)C[C@H]1NC(=O)[C@H](CCCN)NC(=O)[C@H](CCC(=O)O)NC(=O)[C@H](Cc2ccc(-c3ccccc3)cc2)NC(=O)[C@H](C(C)C)NC(=O)[C@H](Cc2c[nH]c3ccccc23)NC(=O)[C@H](CC(=O)O)NC(=O)[C@H](Cc2ccc3ncccc3c2)NC(=O)[C@H](CC(N)=O)NC(=O)CSC[C@@H](C(=O)N[C@@H](C)C(N)=O)NC(=O)[C@H]([C@@H](C)O)NC(=O)[C@H](C(C)C)NC(=O)[C@H](CC2CCCCC2)NC(=O)[C@H](CCN)NC1=O` [Compound 2175] ({CH2CO}-N[X5]DWV[Bip]E[Orn][dL][Dab][Cha]VTCA-NH2; thioether N-14), the IC50 was determined as 69.4 nM.

Consider `CC(C)C[C@H]1NC(=O)[C@H](CCCN)NC(=O)[C@H](CCC(=O)O)NC(=O)[C@H](Cc2ccc(-c3ccccc3)cc2)NC(=O)[C@H](C(C)C)NC(=O)[C@H](Cc2c[nH]c3ccccc23)NC(=O)[C@H](CC(=O)O)NC(=O)[C@H](Cc2ccc3ncccc3c2)NC(=O)[C@H](Cc2ccccc2)NC(=O)CSC[C@@H](C(=O)N[C@@H](C)C(N)=O)NC(=O)[C@H]([C@@H](C)O)NC(=O)[C@H](C(C)C)NC(=O)[C@H](CC2CCCCC2)NC(=O)[C@H](CCN)NC1=O` [Compound 2176] ({CH2CO}-F[X5]DWV[Bip]E[Orn][dL][Dab][Cha]VTCA-NH2; thioether N-14), for which the half-maximal inhibitory concentration (IC50) amounted to 111 nM.

As to `CC(C)C[C@H]1NC(=O)[C@H](CCCN)NC(=O)[C@H](CCC(=O)O)NC(=O)[C@H](Cc2ccc(-c3ccccc3)cc2)NC(=O)[C@H](C(C)C)NC(=O)[C@H](Cc2c[nH]c3ccccc23)NC(=O)[C@H](CC(=O)O)NC(=O)[C@H](Cc2ccc3ncccc3c2)NC(=O)[C@H](CN)NC(=O)CSC[C@@H](C(=O)N[C@@H](C)C(N)=O)NC(=O)[C@H]([C@@H](C)O)NC(=O)[C@H](C(C)C)NC(=O)[C@H](CC2CCCCC2)NC(=O)[C@H](CCN)NC1=O` [Compound 2177] ({CH2CO}-[Dap][X5]DWV[Bip]E[Orn][dL][Dab][Cha]VTCA-NH2; thioether N-14), the IC50 amounted to 128 nM.

`CC(C)C[C@H]1NC(=O)[C@H](CCCN)NC(=O)[C@H](CCC(=O)O)NC(=O)[C@H](Cc2ccc(-c3ccccc3)cc2)NC(=O)[C@H](C(C)C)NC(=O)[C@H](Cc2c[nH]c3ccccc23)NC(=O)[C@H](CC(=O)O)NC(=O)[C@H](Cc2ccc3ncccc3c2)NC(=O)[C@H](Cc2ccc(OCC(=O)O)cc2)NC(=O)CSC[C@@H](C(=O)N[C@@H](C)C(N)=O)NC(=O)[C@H]([C@@H](C)O)NC(=O)[C@H](C(C)C)NC(=O)[C@H](CC2CCCCC2)NC(=O)[C@H](CCN)NC1=O` [Compound 2178]: the IC50 was 52.7 nM.

As to `CC(C)C[C@H]1NC(=O)[C@H](CCCN)NC(=O)[C@H](CCC(=O)O)NC(=O)[C@H](Cc2ccc(-c3ccccc3)cc2)NC(=O)[C@H](C(C)C)NC(=O)[C@H](Cc2c[nH]c3ccccc23)NC(=O)[C@H](CC(=O)O)NC(=O)[C@H](Cc2ccc3ncccc3c2)NC(=O)[C@H](Cc2ccncc2)NC(=O)CSC[C@@H](C(=O)N[C@@H](C)C(N)=O)NC(=O)[C@H]([C@@H](C)O)NC(=O)[C@H](C(C)C)NC(=O)[C@H](CC2CCCCC2)NC(=O)[C@H](CCN)NC1=O` [Compound 2179] ({CH2CO}-[4Pal][X5]DWV[Bip]E[Orn][dL][Dab][Cha]VTCA-NH2; thioether N-14), the IC50 came out at 65.1 nM.

On to `CC(C)C[C@H]1NC(=O)[C@H](CCCN)NC(=O)[C@H](CCC(=O)O)NC(=O)[C@H](Cc2ccc(-c3ccccc3)cc2)NC(=O)[C@H](C(C)C)NC(=O)[C@H](Cc2c[nH]c3ccccc23)NC(=O)[C@H](CC(=O)O)NC(=O)[C@H](Cc2ccc(N)cc2)NC(=O)[C@H](CC(N)=O)NC(=O)CSC[C@@H](C(=O)N[C@@H](C)C(N)=O)NC(=O)[C@H]([C@@H](C)O)NC(=O)[C@H](C(C)C)NC(=O)[C@H](CC2CCCCC2)NC(=O)[C@H](CCN)NC1=O` [Compound 2180] ({CH2CO}-N[Phe(4-NH2)]DWV[Bip]E[Orn][dL][Dab][Cha]VTCA-NH2; thioether N-14), for which the 50% inhibitory concentration (IC50) came out at 28.1 nM.

Take `CC(C)C[C@H]1NC(=O)[C@H](CCCN)NC(=O)[C@H](CCC(=O)O)NC(=O)[C@H](Cc2ccc(-c3ccccc3)cc2)NC(=O)[C@H](C(C)C)NC(=O)[C@H](Cc2c[nH]c3ccccc23)NC(=O)[C@H](CC(=O)O)NC(=O)[C@H](Cc2ccc(N)cc2)NC(=O)[C@H](Cc2ccccc2)NC(=O)CSC[C@@H](C(=O)N[C@@H](C)C(N)=O)NC(=O)[C@H]([C@@H](C)O)NC(=O)[C@H](C(C)C)NC(=O)[C@H](CC2CCCCC2)NC(=O)[C@H](CCN)NC1=O` [Compound 2181] ({CH2CO}-F[Phe(4-NH2)]DWV[Bip]E[Orn][dL][Dab][Cha]VTCA-NH2; thioether N-14): the IC50 worked out at 26.4 nM.

For `CC(C)C[C@H]1NC(=O)[C@H](CCCN)NC(=O)[C@H](CCC(=O)O)NC(=O)[C@H](Cc2ccc(-c3ccccc3)cc2)NC(=O)[C@H](C(C)C)NC(=O)[C@H](Cc2c[nH]c3ccccc23)NC(=O)[C@H](CC(=O)O)NC(=O)[C@H](Cc2ccc(N)cc2)NC(=O)[C@H](CN)NC(=O)CSC[C@@H](C(=O)N[C@@H](C)C(N)=O)NC(=O)[C@H]([C@@H](C)O)NC(=O)[C@H](C(C)C)NC(=O)[C@H](CC2CCCCC2)NC(=O)[C@H](CCN)NC1=O` [Compound 2182], the IC50 came out at 16 nM.

On to `CC(C)C[C@H]1NC(=O)[C@H](CCCN)NC(=O)[C@H](CCC(=O)O)NC(=O)[C@H](Cc2ccc(-c3ccccc3)cc2)NC(=O)[C@H](C(C)C)NC(=O)[C@H](Cc2c[nH]c3ccccc23)NC(=O)[C@H](CC(=O)O)NC(=O)[C@H](Cc2ccc(N)cc2)NC(=O)[C@H](Cc2ccc(OCC(=O)O)cc2)NC(=O)CSC[C@@H](C(=O)N[C@@H](C)C(N)=O)NC(=O)[C@H]([C@@H](C)O)NC(=O)[C@H](C(C)C)NC(=O)[C@H](CC2CCCCC2)NC(=O)[C@H](CCN)NC1=O` [Compound 2183], for which the IC50 was found to be 19.4 nM.

As to `CC(C)C[C@H]1NC(=O)[C@H](CCCN)NC(=O)[C@H](CCC(=O)O)NC(=O)[C@H](Cc2ccc(-c3ccccc3)cc2)NC(=O)[C@H](C(C)C)NC(=O)[C@H](Cc2c[nH]c3ccccc23)NC(=O)[C@H](CC(=O)O)NC(=O)[C@H](Cc2ccc(N)cc2)NC(=O)[C@H](Cc2ccncc2)NC(=O)CSC[C@@H](C(=O)N[C@@H](C)C(N)=O)NC(=O)[C@H]([C@@H](C)O)NC(=O)[C@H](C(C)C)NC(=O)[C@H](CC2CCCCC2)NC(=O)[C@H](CCN)NC1=O` [Compound 2184], the IC50 was found to be 28.5 nM.

With `CC(C)C[C@H]1NC(=O)[C@H](CCCN)NC(=O)[C@H](CCC(=O)O)NC(=O)[C@H](Cc2ccc(-c3ccccc3)cc2)NC(=O)[C@H](C(C)C)NC(=O)[C@H](Cc2c[nH]c3ccccc23)NC(=O)[C@H](CC(=O)O)NC(=O)[C@H](Cc2ccc(C#N)cc2)NC(=O)[C@H](CC(N)=O)NC(=O)CSC[C@@H](C(=O)N[C@@H](C)C(N)=O)NC(=O)[C@H]([C@@H](C)O)NC(=O)[C@H](C(C)C)NC(=O)[C@H](CC2CCCCC2)NC(=O)[C@H](CCN)NC1=O` [Compound 2185] ({CH2CO}-N[Phe(4-CN)]DWV[Bip]E[Orn][dL][Dab][Cha]VTCA-NH2; thioether N-14), the 50% inhibitory concentration (IC50) stood at 28.1 nM.

With `CC(C)C[C@H]1NC(=O)[C@H](CCCN)NC(=O)[C@H](CCC(=O)O)NC(=O)[C@H](Cc2ccc(-c3ccccc3)cc2)NC(=O)[C@H](C(C)C)NC(=O)[C@H](Cc2c[nH]c3ccccc23)NC(=O)[C@H](CC(=O)O)NC(=O)[C@H](Cc2ccc(C#N)cc2)NC(=O)[C@H](Cc2ccccc2)NC(=O)CSC[C@@H](C(=O)N[C@@H](C)C(N)=O)NC(=O)[C@H]([C@@H](C)O)NC(=O)[C@H](C(C)C)NC(=O)[C@H](CC2CCCCC2)NC(=O)[C@H](CCN)NC1=O` [Compound 2186] ({CH2CO}-F[Phe(4-CN)]DWV[Bip]E[Orn][dL][Dab][Cha]VTCA-NH2; thioether N-14), the IC50 came to 45.2 nM.

`CC(C)C[C@H]1NC(=O)[C@H](CCCN)NC(=O)[C@H](CCC(=O)O)NC(=O)[C@H](Cc2ccc(-c3ccccc3)cc2)NC(=O)[C@H](C(C)C)NC(=O)[C@H](Cc2c[nH]c3ccccc23)NC(=O)[C@H](CC(=O)O)NC(=O)[C@H](Cc2ccc(C#N)cc2)NC(=O)[C@H](CN)NC(=O)CSC[C@@H](C(=O)N[C@@H](C)C(N)=O)NC(=O)[C@H]([C@@H](C)O)NC(=O)[C@H](C(C)C)NC(=O)[C@H](CC2CCCCC2)NC(=O)[C@H](CCN)NC1=O` [Compound 2187]: the IC50 was found to be 13.2 nM.

Values taken from US20250163104A1, “MACROCYCLIC IMMUNOMODULATORS” (priority 2021, published 2025).
